From ChEMBL document CHEMBL1201862, “PubChem BioAssay data set” (2004) come the findings set out here.

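48-hour exposure; five concentrations; linearly interpolated endpoints. Abbreviation: GI50, concentration required for 50% inhibition of growth.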 Calls of active or inactive are those of the source. Rule as the data show it: active = GI50 up to about 1.1 µM and inactive = higher.

Among the test systems are SR; A498; HCT-15; SN12C; SK-MEL-2; CCRF-CEM; DU-145; M14; HOP-62; RXF 393; SK-OV-3; SF-295; TK-10; NCI-H226; SF-268; LOX IMVI; SK-MEL-5; MDA-MB-231; CAKI-1; K562.
Assay in all cases: NCI-60 cell line screen, 48 h

`CCOc1ccccc1/N=N/C1C(=O)N(C(=O)CC(=O)Nc2ccccc2Cl)N=C1C` (stereo unspecified): the GI50 with SR was 78.7 µM (inactive); with A498, 50.1 µM (inactive); in the test on HCT-15, 26.9 µM; in the test on SN12C, > 100 µM (inactive); with SK-MEL-2, > 100 µM (inactive); in the test on CCRF-CEM, 68.7 µM (inactive). Also, the GI50 with DU-145 is > 100 µM (inactive); in the test with M14, > 100 µM (inactive); with HOP-62 it was 27.9 µM (inactive); in the test on RXF 393, > 100 µM (inactive); in the test on SK-OV-3 it was 26.9 µM (inactive); with SF-295 it was 37.6 µM (inactive). Also, the GI50 was 81.8 µM (inactive) in the test with TK-10; > 100 µM (inactive) in the test with NCI-H226; 33.7 µM (inactive) with SF-268; 43.7 µM (inactive) in the test on LOX IMVI; > 100 µM (inactive) in the test on SK-MEL-5; 97.9 µM (inactive) in the test with MDA-MB-231. In addition, the GI50 in the test on CAKI-1 was > 100 µM (inactive).

With `CC1(C)OCC(C2OC(N3O[C@H](CI)C[C@@H]3c3ccccc3)C3OC(C)(C)OC23)O1` (stereo partly specified), the GI50 is 48.5 µM (inactive) with SR; > 100 µM (inactive) in the test on A498; over 100 µM in the test on HCT-15; > 100 µM (inactive) in the test on SN12C; > 100 µM (inactive) in the test with SK-MEL-2; > 100 µM (inactive) in the test with CCRF-CEM. Moreover, the GI50 in the test on DU-145 is > 100 µM (inactive); in the test on M14 it was 82 µM (inactive); with HOP-62, > 100 µM (inactive); in the test on RXF 393, > 100 µM (inactive); in the test with K562, > 100 µM (inactive); in the test on SK-OV-3, > 100 µM (inactive). Further, the GI50 in the test on SF-295 is > 100 µM (inactive); in the test on TK-10, > 100 µM (inactive); with SF-268 it was > 100 µM (inactive); with LOX IMVI, > 100 µM (inactive); with SK-MEL-5, 48.8 µM (inactive); in the test with MDA-MB-231, > 100 µM (inactive). Besides, in the test with CAKI-1, the GI50 was > 100 µM (inactive).

`CC1Oc2cc3c(-c4c(O)cc(O)c5c(O)c6c(cc45)OC(C)C(C)C6=O)c(O)cc(O)c3c(O)c2C(=O)C1C` (stereo unspecified): the GI50 in the test with SR was 0.054 µM (active); in the test with A498, 0.155 µM (active); in the test on HCT-15 it was 0.0474 µM; in the test with SN12C, 0.11 µM (active); in the test on SK-MEL-2 it was 0.101 µM (active); with CCRF-CEM, 0.0279 µM (active). Further, the GI50 is 0.365 µM (active) with DU-145; 0.226 µM (active) in the test on M14; 0.282 µM (active) in the test on HOP-62; 0.0173 µM (active) in the test with RXF 393; 0.0526 µM (active) in the test with K562; 0.363 µM (active) in the test with SK-OV-3. Besides, the GI50 in the test on SF-295 was 0.061 µM (active); in the test with TK-10 it was 0.27 µM (active); with NCI-H226, 0.0871 µM (active); in the test with SF-268, 0.254 µM (active); with SK-MEL-5 it was 0.158 µM (active); with MDA-MB-231 it was 0.0925 µM (active). Moreover, the GI50 in the test with CAKI-1 is 0.231 µM (active).

Take `COc1ccc(/N=N/c2ccc3oc(=O)c(C(=O)Nc4ccccc4C)cc3c2)cc1`: the GI50 with SR is > 10 µM (inactive); with A498 it was > 10 µM (inactive); with HCT-15 it was over 10 µM; in the test on SN12C it was > 10 µM (inactive); in the test on SK-MEL-2, > 10 µM (inactive); with DU-145, > 10 µM (inactive). Moreover, the GI50 in the test with M14, in the test with HOP-62, in the test on RXF 393, in the test on SK-OV-3, in the test on SF-295 and in the test with TK-10 was > 10 µM (inactive) throughout. The GI50 in the test with NCI-H226, with SF-268, in the test on LOX IMVI, with SK-MEL-5, in the test with MDA-MB-231 and in the test on CAKI-1 was > 10 µM (inactive) in each case.

Regarding `Nc1ccc(Oc2ccc(C34CC5CC(C3)CC(c3ccc(Oc6ccc(N)c(O)c6)cc3)(C5)C4)cc2)cc1O`, the GI50 in the test with SR was 0.424 µM (active); with A498, 7.66 µM (inactive); in the test with HCT-15 it was 1.77 µM; with SN12C, 2.45 µM (inactive); in the test with SK-MEL-2 it was 2.07 µM (inactive); in the test with DU-145, 1.71 µM (inactive). In addition, the GI50 in the test with M14 is 1.63 µM (inactive); with HOP-62 it was 3.47 µM (inactive); in the test with RXF 393, 1.41 µM (inactive); with K562, 3.3 µM (inactive); in the test on SK-OV-3, 3.1 µM (inactive); in the test with SF-295 it was 2.31 µM (inactive). Moreover, the GI50 in the test with TK-10 is 3.3 µM (inactive); in the test on NCI-H226, 3.1 µM (inactive); in the test on SF-268, 1.35 µM (inactive); in the test with LOX IMVI it was 1.69 µM (inactive); in the test with SK-MEL-5, 1.61 µM (inactive); with MDA-MB-231, 1.57 µM (inactive). In addition, the GI50 with CAKI-1 is 1.93 µM (inactive).

Consider `COCc1nc2c(OC)c(-c3nc4ccc(N5CCN(C)CC5)nc4[nH]3)cc(OC)c2[nH]1`, for which the GI50 in the test with SR was 32.9 µM (inactive); in the test on A498, > 100 µM (inactive); with HCT-15 it was 38.1 µM; in the test on SN12C it was 51.5 µM (inactive); with CCRF-CEM it was 21.2 µM (inactive); in the test on DU-145, 29.2 µM (inactive). The GI50 in the test with M14 is 21.3 µM (inactive); with HOP-62, 40.1 µM (inactive); in the test with RXF 393 it was 27.2 µM (inactive); in the test on K562, 25.4 µM (inactive); with SK-OV-3, 45.3 µM (inactive); in the test with SF-295, 31.6 µM (inactive). In addition, the GI50 with TK-10 was 67.3 µM (inactive); in the test with NCI-H226, > 100 µM (inactive); with SF-268, 77.4 µM (inactive); in the test with LOX IMVI, 30.8 µM (inactive); in the test with SK-MEL-5, 18.6 µM (inactive); in the test with MDA-MB-231, 45.8 µM (inactive). Moreover, the GI50 in the test on CAKI-1 is > 100 µM (inactive).

As for `CCCC1C(=O)Nc2cccc3ncn(c23)C1=O` (stereo unspecified), the GI50 was > 100 µM (inactive) in the test with SR; > 100 µM (inactive) with A498; over 100 µM with HCT-15; > 100 µM (inactive) in the test on SN12C; > 100 µM (inactive) in the test with SK-MEL-2; > 100 µM (inactive) with CCRF-CEM. Further, the GI50 in the test with DU-145, in the test with M14, in the test with HOP-62, in the test with RXF 393, in the test with K562 and with SK-OV-3 was > 100 µM (inactive) throughout. Also, the GI50 in the test with SF-295, with NCI-H226, in the test on SF-268, in the test on SK-MEL-5, in the test on MDA-MB-231 and with CAKI-1 was > 100 µM (inactive) each time.

With `CN1C(=O)C(O)CC1c1cccc(F)c1` (stereo unspecified), the GI50 in the test on SR is > 100 µM (inactive); in the test with A498 it was > 100 µM (inactive); with HCT-15, over 100 µM; in the test on SN12C, > 100 µM (inactive); with SK-MEL-2, > 100 µM (inactive); in the test on CCRF-CEM, > 100 µM (inactive). Besides, the GI50 in the test on DU-145, in the test with M14, in the test on HOP-62, in the test on RXF 393, in the test on K562 and in the test with SK-OV-3 was > 100 µM (inactive) each time. Besides, the GI50 in the test on SF-295, with NCI-H226, in the test with LOX IMVI, with SK-MEL-5, in the test with MDA-MB-231 and in the test on CAKI-1 was > 100 µM (inactive) in each case.

For the compound `Cc1cc(OCc2nnc3n2N=C(c2cc(F)c(Cl)cc2Cl)/C(=C/c2ccc(-c4ccc(Cl)cc4)o2)S3)ccc1Cl`, the GI50 in the test with SR was 22.9 µM (inactive); with A498, 24.7 µM (inactive); with HCT-15, 34 µM; with SN12C, 31.3 µM (inactive); in the test with SK-MEL-2, > 50 µM (inactive); with CCRF-CEM, > 50 µM (inactive). Besides, the GI50 in the test on DU-145 is > 50 µM (inactive); in the test with M14, > 50 µM (inactive); with HOP-62, > 50 µM (inactive); with RXF 393 it was > 50 µM (inactive); with K562, 26.9 µM (inactive); in the test on SF-295, 36.6 µM (inactive). Further, the GI50 in the test with TK-10 was 41.2 µM (inactive); in the test with NCI-H226 it was 36.3 µM (inactive); with SF-268, > 50 µM (inactive); in the test with LOX IMVI, 31.6 µM (inactive); with SK-MEL-5, 46.5 µM (inactive); in the test with MDA-MB-231, 12.9 µM (inactive). The GI50 in the test on CAKI-1 is 39.5 µM (inactive).

With `OC1(c2ccccc2)CC2CCC(C1)N2CCCC1(c2ccc(F)cc2)OCCO1` (stereo unspecified), the GI50 was 27.3 µM (inactive) in the test with SR; > 100 µM (inactive) in the test with A498; over 100 µM in the test on HCT-15; > 100 µM (inactive) in the test with SN12C; > 100 µM (inactive) in the test on SK-MEL-2; 3.66 µM (inactive) with CCRF-CEM. Also, the GI50 in the test on DU-145 is > 100 µM (inactive); with M14, 21 µM (inactive); with HOP-62 it was > 100 µM (inactive); with RXF 393 it was 59.7 µM (inactive); with K562, > 100 µM (inactive); with SK-OV-3 it was > 100 µM (inactive). Also, the GI50 in the test on SF-295 is 3.26 µM (inactive); in the test on TK-10, > 100 µM (inactive); in the test on SF-268, > 100 µM (inactive); with LOX IMVI it was > 100 µM (inactive); in the test on SK-MEL-5 it was 21.3 µM (inactive); in the test on MDA-MB-231 it was > 100 µM (inactive). In addition, in the test on CAKI-1, the GI50 was > 100 µM (inactive).

Regarding `CN(C)S(=O)(=O)c1ccc(Nc2ccc(O)c3c2C(=O)c2c([N+](=O)[O-])ccc(O)c2C3=O)cc1`, the GI50 was 54.2 µM (inactive) with SR; > 100 µM (inactive) in the test with A498; over 100 µM with HCT-15; > 100 µM (inactive) in the test with SN12C; > 100 µM (inactive) with SK-MEL-2; 4.39 µM (inactive) with CCRF-CEM. The GI50 in the test with DU-145, in the test with M14, with HOP-62, with RXF 393, in the test on K562 and with SK-OV-3 was > 100 µM (inactive) each time. The GI50 in the test with SF-295 was > 100 µM (inactive); in the test with TK-10, 56.4 µM (inactive); with SF-268 it was > 100 µM (inactive); in the test on LOX IMVI, 64.7 µM (inactive); in the test with SK-MEL-5, 72.3 µM (inactive); in the test on MDA-MB-231 it was 91.2 µM (inactive). In addition, the GI50 in the test on CAKI-1 is > 100 µM (inactive).
